Laboratory results as given in patent publication US10857170B1, “Molecules, compositions and methods for modulation of SIRT6” (SirTLab Corporation, priority 2015, dated 2020).

Target: T1, Human recombinant SIRT6 (Homo sapiens, UniProt Q8N6T7)
T1 construct: six-histidine (His6); made in house; host or cells: Escherichia coli BL21
Experiment: SIRT6 enzymatic activity assay (fluorogenic de-myristoylation of histone H3 peptide-AMC, trypsin-coupled)
Format: biochemical
Settings: for % activity 20 uM: compound 20 uM; for % activity 20 uM / % activity 100 uM / % activity Max. conc. 100 uM: percentage of signal increase relative to control wells; for % activity 100 uM / % activity Max. conc. 100 uM: compound 100 uM; for % activity (20 micromolar only): Table 3, compound 20 micromolar
Procedure: Human recombinant SIRT6 (sequence identifier: CAG33481.1; GI:4814651) was expressed in large scale in Escherichia coli strain BL21 as a six-histidine-tagged protein, after transformation of the expression plasmid pET28-SIRT6. The SIRT6 enzyme was purified from the bacteria culture broth in a two-step strategy. The first purification step was carried out by cation exchange chromatography on a HiTrap CM-Sepharose column (GE Healthcare) using an FPLC system. The second purification step was performed by immobilized metal ion affinity chromatography (IMAC) using a cobalt affinity column (Clontech).
The enzymatic activity assay is carried out in 96 or 384-well microplates using the purified recombinant SIRT6 and a fluorophore-labeled peptide substrate: 7-amino-4-methylcoumarin (AMC) that is quenched through conjugation to the C-terminal end of a Lysin-myristoylated histone H3 peptide. The activity assay procedure requires two steps, both performed in the same microplate. In the first step, the substrate is incubated with the purified SIRT6 protein along with the co-substrate nicotinamide adenine dinucleotide (NAD+). Upon de-myristoylation, the liberated ε-amino group of the lysine becomes a trypsin substrate. Treatment with trypsin in the second step releases the fluorophore resulting in an increase in fluorescence. Fluorescence intensity is measured using a fluorescent plate reader (excitation and emission at 370 nm and 450 nm, respectively). The fluorescence signal is directly proportional to SIRT6 enzymatic activity.
In the primary screening, compounds from a library (ChemDiv Inc.) were tested at a single concentration of 20 micromolar for their potential to modulate SIRT6 enzymatic activity. The assay was carried out in 384-well black well plates and all liquid handling was done using a robotic liquid handler. Purified recombinant SIRT6 (1 micromolar) was pre-incubated with each compound (or DMSO in control wells) for 15 minutes at room temperature. The first stage of the assay was initiated by adding a ‘substrate solution’ containing the myristoylated histone H3 peptide and NAD+(for final concentrations of 25 micromolar and 20 micromolar, respectively). After one hour incubation at 37° C., a Trypsin solution (6 mg/mL) was added for 30 minutes at room temperature. Fluorescence intensity was measured using a fluorescent plate reader (Tecan) with excitation at 370 nm and emission at 450 nm. The effect of each tested compound was evaluated by the change in the fluorescence intensity compared to control wells. […] To validate the primary screening results, each of the primary “hits” was re-tested, first at concentration of 20 micromolar in duplicates and later at a serial dilution ranging from 100 to 0.2 micromolar in triplicates.

T1 sequence (Q8N6T7 whole entry): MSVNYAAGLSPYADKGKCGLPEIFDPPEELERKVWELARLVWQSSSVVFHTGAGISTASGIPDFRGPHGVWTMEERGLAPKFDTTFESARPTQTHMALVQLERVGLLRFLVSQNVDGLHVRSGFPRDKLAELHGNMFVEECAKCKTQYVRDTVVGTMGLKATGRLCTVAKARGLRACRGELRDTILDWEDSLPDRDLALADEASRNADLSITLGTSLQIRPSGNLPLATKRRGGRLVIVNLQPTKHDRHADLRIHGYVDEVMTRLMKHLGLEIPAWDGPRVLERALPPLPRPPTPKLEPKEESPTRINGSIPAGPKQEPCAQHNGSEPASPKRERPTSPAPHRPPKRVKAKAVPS

Row | Structure (SMILES) | % activity 20 uM (Table 2) [%] | % activity 100 uM (Table 2) [%] | % activity 20 uM (Table 1) [%] | % activity Max. conc. 100 uM (Table 1) [%] | % activity (20 micromolar only) [%]
1 | COc1cc(NC(=O)c2csc(-c3cn(C)c4ncccc34)n2)cc(OC)c1 [compound 55] | 31 | 37 |  |  | 
2 | COc1ccc(-c2nn3c(C)nnc3s2)cc1N [compound 17] | 21 | 18 |  |  | 
3 | C=C(CC)Nc1ccc(-c2cc(C(=O)NCCCN3CCCC(C)C3)c3ccccc3n2)cc1 (stereo not shown) [compound 42] | 61 | 87 |  |  | 
4 | C=C(CCOc1ccccc1)N(CCCN(C)C)C1=Nc2c(C)cccc2C1 [A] |  |  | 263 | 255 | 
5 | Cc1ccnc(NC(c2ccc(C)cc2C)c2ccc3cccnc3c2O)c1 (stereo not shown) [compound 6] | 30 | 28 |  |  | 
6 | C=C(NCCN1CCN(C)CC1)c1cc(-c2ccc(NC(C)=O)cc2)nc2ccc(C)cc12 [compound 43] | 96 | 119 |  |  | 
7 | Cn1c(-c2ccc3[nH]c(-c4ccc(N)cc4)nc3c2)nc2cc(N)ccc21 [compound 7] | 118 | 162 |  |  | 
8 | C=C(Nc1ccc(CC)c(Cl)c1)c1cc(N)cc2cn[nH]c12 [compound 36] | 45 | 56 |  |  | 
9 | Cc1cc(Nc2ccc(NC(=O)Nc3ccc4c(c3)CCCO4)cc2)nc(NC2CCCCC2)n1 [compound 25] | 26 | 22 |  |  | 
10 | Cc1nc(-c2cccc(F)c2)c(N)c(N(C)C2CCN(C)CC2)n1 [compound 61] | 50 | 210 |  |  | 
11 | C=C1Oc2cc(C[C@@H]3C[C@H](CO)[C@H](O)[C@H](C)[C@H]3O)ccc2C2=C1CCCC2 [C] |  |  | 70 | 195 | 
12 | CC[C@H]1O[C@@H](Cc2ccc3c(c2C)CC(=O)C(C)=C3C)[C@H](C)[C@@H](O)[C@H]1C [compound 26] | 21 | 56 |  |  | 
13 | CC1=NCC(c2ccc(O)cc2O)=C1c1ccc(Cl)cc1 [compound 18] | 53 | 94 |  |  | 
14 | N#Cc1cccc(-c2cn3c(n2)N(C(=O)c2ccncc2)CCC3)c1 [compound 57] | 37 | 45 |  |  | 
15 | Cc1nc(-c2cccc(C(F)(F)F)c2)c(N)c(N(C)C2CCN(C)CC2)n1 [compound 60] | 52 | 255 |  |  | 
16 | CCN1CCCC1CNC(=O)C1CCN(c2cc(C)nc3c(-c4ccc(Cl)cc4)c(C)nn23)CC1 (stereo not shown) [compound 22] | 32 | 29 |  |  | 
17 | CCc1nnc(NC(=O)CSc2nc(N)nc(SC)c2C#N)s1 [compound 8] | 25 | 25 |  |  | 

Row | Structure (SMILES) | % activity 20 uM (Table 2) [%] | % activity 100 uM (Table 2) [%] | % activity 20 uM (Table 1) [%] | % activity Max. conc. 100 uM (Table 1) [%] | % activity (20 micromolar only) [%]
18 | O=C(Nc1ccc2nnc(C3CCC3)n2c1)C1CC1 [compound 52] | 69 | 142 |  |  | 
19 | Cc1nc2sc(-c3nc4ccccc4[nH]3)c(N)c2c(C)c1Cl [compound 12] | 36 | 59 |  |  | 
20 | C=C(c1ccc(-c2ccc(N3CCCCC3)nc2)cc1)N(C)C [compound 48] | 40 | 54 |  |  | 
21 | Cc1nc(Nc2ccc(F)cc2)sc1C(=O)Nc1ccc(F)cc1F [compound 53] | 36 | 22 |  |  | 
22 | N#Cc1c(N)oc(C2=CC=CC2)c1-c1ccco1 [compound 14] | 28 | 48 |  |  | 
23 | C=C(Nc1ccc(CCC)cc1)C1=C(C)c2c(nc(C)nc2N(C)c2ccc(C(C)C)cc2)C1 [compound 39] | 32 | 54 |  |  | 
24 | COCCNc1oc2c(c1-c1ccc(C)cc1)c(=O)oc1c(C)cccc12 [compound 30] | 149 | 111 |  |  | 
25 | C=C(CN1C(=C)C(c2nc(-c3ccccc3)no2)=C(C)C=C1C)NCCc1ccc(CC)c(CC)c1 [compound 32] | 101 | 73 |  |  | 
26 | CCn1c2ccccc2c2nnc(N3CCN(c4cccc(C(F)(F)F)c4)CC3)nc21 [compound 64] |  |  |  |  | 85
27 | Cc1ccccc1CSc1ncc(Sc2ccccc2)c(C(=O)NCc2ccccc2)n1 [compound 23] | 55 | 65 |  |  | 
28 | C=C1Oc2ccc(C)cc2-c2oc(NCCOC)c(-c3ccc(OCC)cc3)c21 [compound 29] | 82 | 226 |  |  | 
29 | O=C(c1ccc(-c2ccc(N3CCCCC3)nc2)cc1)N1CCCC1 [compound 49] | 93 | 75 |  |  | 
30 | CC1=CC(C)(C)Nc2ccc(OC(=O)c3cccs3)cc21 [compound 5] | 39 | 54 |  |  | 
31 | C=C1N(C)C(=O)c2c(nc3n2CC(c2ccc(Br)cc2)=NN3)N1C [compound 11] | 41 | 99 |  |  | 
32 | C=C(CS)Nc1ccc(CCCCC)cc1 [compound 9] | 22 | 48 |  |  | 
33 | CCCC1(CO)CCCN1C(=O)c1ccc2cc[nH]c2c1 (stereo not shown) [compound 56] | 30 | 53 |  |  | 

Results, then the compound that gave them:

Row | % activity 20 uM (Table 2) [%] | % activity 100 uM (Table 2) [%] | % activity 20 uM (Table 1) [%] | % activity Max. conc. 100 uM (Table 1) [%] | % activity (20 micromolar only) [%] | Structure (SMILES)
34 |  |  | 287 | 252 |  | Cc1cccc2c1N=C(N(CCCN(C)C)C(=O)CCOc1ccccc1)C2 [B]
35 | 52 | 52 |  |  |  | C=S(=O)(C1=CC=C(c2ccc(N3CCCCC3)nn2)C1)N1CCCC(C(=O)OCC)C1 (stereo not shown) [compound 38]
36 | 38 | 36 |  |  |  | C=S(=C)(c1cc(Cl)ccc1Cl)n1c(/C=C/c2ccc(SC)cc2)nc2ccccc21 [compound 21]
37 | 78 | 22 |  |  |  | COc1ccc(-c2csc3c(NN)ncnc23)cc1 [compound 20]
38 | 29 | 16 |  |  |  | Cc1ccc(NC(=O)c2nnc(-c3ccc(NC(=O)c4cccs4)cc3)s2)cc1 [compound 31]
39 | 29 | 46 |  |  |  | C=C(Nc1ccc(Cl)cc1)N1c2ccc(OCC)cc2C(C)=CC1(C)C [compound 2]
40 | 134 | 246 |  |  |  | C=C1Cc2ccc(C)cc2C2=C1C(c1ccc(F)cc1)=C(NCCOC)C2 [compound 28]
41 | 24 | 86 |  |  |  | O=C1Nc2ccc(Cl)cc2C(c2ccccc2)C1Nc1ccc(Oc2ccccc2)cc1 (stereo not shown) [compound 13]
42 | 23 | 87 |  |  |  | CC(C)(C)c1ccc(C(=O)Nc2ccc3nnc(C4CCC4)n3c2)cc1 [compound 51]
43 | 40 | 197 |  |  |  | C=C1Nc2nc(OC(C)=O)c(C)c(C)c2S1 [compound 16]
44 | 154 | 324 |  |  |  | C=C(Oc1ccc2cnccc2c1)C1=C(N)c2ccccc2C1 [compound 35]
45 | 31 | 11 |  |  |  | Cc1ccc(Nc2nc(C)c(C(=O)Nc3cccc(C(C)C)c3)s2)cc1 [compound 54]
46 | 77 | 47 |  |  |  | Cc1cc(NC(=O)CSc2nnc(-c3sc4ncccc4c3N)n2C)ccc1Cl [compound 24]
47 | 62 | 92 |  |  |  | C=C(CC)Nc1ccc(-c2cc(C(=O)NCCCN3CCCCCC3)c3ccccc3n2)cc1 [compound 40]
48 | 29 | 56 |  |  |  | C=C(Cc1ccc2c(c1)C(C)=CC(C)(C)N2)Cc1cccc2ccccc12 [compound 4]
49 | 51 | 56 |  |  |  | C=C(c1ccc(-c2nc3ccccc3n(CC(C)C)c2=O)cc1)N1CCN(c2ccccc2)CC1 [compound 46]
50 | 37 | 61 |  |  |  | C=C(OC(C)CC)C1=C(C)NC2=C(C(=C)C(C(=C)OC)C(C)C2)C1c1ccc(N(CC)CC)cc1 (stereo not shown) [compound 19]
51 | 53 | 221 |  |  |  | C=C(CN1C(=C)C(c2nc(-c3ccccc3)no2)=C(C)C=C1C)NC1CCCCC1 [compound 33]
52 |  |  |  |  | 38 | O=C(NCc1ccc2c(c1)CCC2)c1ccc(NC(=O)C2CC2)cc1N1CCCCCC1 [compound 63]
53 | 63 | 50 |  |  |  | C=C(NCCC)c1ccc(-c2ccc(N3CCCCC3)nc2)cc1 [compound 47]
54 | 30 | 51 |  |  |  | O=C(Nc1ccc2nncn2c1)c1cccc(Cl)c1 [compound 50]
